{
  "source": "patent US20260217699A1",
  "about": "“BERBERINE TAUROURSODEOXYCHOLATE COMPOSITIONS AND METHODS THEREOF” (SHENZHEN HIGHTIDE BIOPHARMACEUTICAL LTD., priority 2023, published 2026)",
  "key": {"[1]": {"assay_type": "physicochemical", "details": "for Purity/%: initial purity 99.45%", "procedure": "The standard XRPD patterns were collected using a Panalytical EMPYREAN (PANalytical, UK). The X-ray source was a Cu tube that was operated at 45 kV and 40 mA. Powder samples were prepared on zero-background Si holders using manual light pressure to keep the sample surface flat. Each sample was analyzed from 3 to 45° (2θ) with an effective step size of 0.013° 20. The measurement time of each sample was 3.5 min.\nThe stability of Form A was studied under high temperature (60° C.), high humidity (25° C./92.5% RH), light (25° C./4500 Lux), and accelerated (40° C./75% RH) conditions, and the samples were taken at 7 and 15 days for XRPD characterization and HPLC tests, respectively, and the results are shown in Tables 3-4 and FIG. 17."}, "[2]": {"test": "Rapid dynamic vapor sorption (Fast DVS) of Form A", "assay_type": "physicochemical", "procedure": "(§1) The synthesized BTUDC was designated as crystalline form A (Form A), and its XRPD diffraction and other related characterization data are shown in FIGS. 11-15. […] (peak at 43° C.), and an endothermic peak at about 280° C."}, "[3]": {"test": "Thermal transcrystallization experiment (variable temperature XRPD)", "assay_type": "physicochemical", "details": "heating to 150° C. and back to room temperature", "procedure": "The form conversion by heating was carried out using an online variable temperature XRPD Malvern PANalytical Aeris (Malvern Panalytical, UK). The X-ray source was a Cu tube that was operated at 40 kV and 7.5 mA. Powder samples were prepared on zero-background Si holders using manual light pressure to keep the sample surface flat. Each sample was analyzed from 3 to 40° (2θ) with an effective step size of 0.02° 20. The measurement time of each sample was 13 min. The sample was placed on a BTS500 hot stage (Anton Paar, AT) to collected XRPD at RT, heated to the target temperature at 20° C./min and held for 10 min before XRPD analysis. The sample was then cooled to RT and characterized by XRPD.\nas §1"}, "[4]": {"details": "Accelerated 40° C./75% RH, 7 Days"}, "[5]": {"details": "Accelerated 40° C./75% RH, 15 Days"}, "[6]": {"details": "High Humidity 25° C./92.5% RH, 7 Days"}, "[7]": {"details": "High Humidity 25° C./92.5% RH, 15 Days"}, "[8]": {"details": "Light Exposure 25° C./4500 Lux, 7 Days"}, "[9]": {"details": "Light Exposure 25° C./4500 Lux, 15 Days"}},
  "note": "Like-named read-outs stand apart in the source and are kept apart here.",
  "data": [
    {"smiles": "COc1ccc2cc3[n+](cc2c1OC)CCc1cc2c(cc1-3)OCO2.C[C@H](CCC(=O)NCCS(=O)(=O)[O-])[C@H]1CC[C@H]2[C@@H]3[C@@H](O)C[C@@H]4C[C@H](O)CC[C@]4(C)[C@H]3CC[C@]12C", "note": "[Form A, berberine tauroursodeoxycholate]", "values": [
      {"measurement": "XRPD Changes", "setting": "[1]; [4]", "value": "No"},
      {"measurement": "Purity/%", "setting": "[1]; [4]", "value": 99.44, "unit": "%"},
      {"measurement": "XRPD Changes", "setting": "[1]; [5]", "value": "No"},
      {"measurement": "Purity/%", "setting": "[1]; [5]", "value": 99.41, "unit": "%"},
      {"measurement": "Relative Peak Area (%)", "setting": "[1]; HPLC main peak RRT 1.00, Accelerated 15 Days, Day 0: 99.45", "value": 99.41, "unit": "%"},
      {"measurement": "Relative Peak Area (%)", "setting": "[1]; HPLC main peak RRT 1.00, High Humidity 15 Days, Day 0: 99.45", "value": 99.44, "unit": "%"},
      {"measurement": "Relative Peak Area (%)", "setting": "[1]; HPLC main peak RRT 1.00, High Temp. 15 Days, Day 0: 99.45", "value": 99.24, "unit": "%"},
      {"measurement": "Relative Peak Area (%)", "setting": "[1]; HPLC main peak RRT 1.00, Light Exposure 15 Days, Day 0: 99.45", "value": 98.53, "unit": "%"},
      {"measurement": "Relative Peak Area (%)", "setting": "[1]; HPLC peak RRT 0.39, Light Exposure 15 Days, Day 0: /", "value": 0.05, "unit": "%"},
      {"measurement": "Relative Peak Area (%)", "setting": "[1]; HPLC peak RRT 0.55, Light Exposure 15 Days, Day 0: /", "value": 0.06, "unit": "%"},
      {"measurement": "Relative Peak Area (%)", "setting": "[1]; HPLC peak RRT 0.70, Accelerated 15 Days, Day 0: 0.05", "value": 0.07, "unit": "%"},
      {"measurement": "Relative Peak Area (%)", "setting": "[1]; HPLC peak RRT 0.70, High Humidity 15 Days, Day 0: 0.05", "value": 0.07, "unit": "%"},
      {"measurement": "Relative Peak Area (%)", "setting": "[1]; HPLC peak RRT 0.70, High Temp. 15 Days, Day 0: 0.05", "value": 0.10, "unit": "%"},
      {"measurement": "Relative Peak Area (%)", "setting": "[1]; HPLC peak RRT 0.70, Light Exposure 15 Days, Day 0: 0.05", "value": 0.77, "unit": "%"},
      {"measurement": "Relative Peak Area (%)", "setting": "[1]; HPLC peak RRT 0.73, Light Exposure 15 Days, Day 0: /", "value": 0.03, "unit": "%"},
      {"measurement": "Relative Peak Area (%)", "setting": "[1]; HPLC peak RRT 0.76, Light Exposure 15 Days, Day 0: /", "value": 0.07, "unit": "%"},
      {"measurement": "Relative Peak Area (%)", "setting": "[1]; HPLC peak RRT 0.79, Light Exposure 15 Days, Day 0: /", "value": 0.05, "unit": "%"},
      {"measurement": "Relative Peak Area (%)", "setting": "[1]; HPLC peak RRT 0.82, Accelerated 15 Days, Day 0: 0.13", "value": 0.13, "unit": "%"},
      {"measurement": "Relative Peak Area (%)", "setting": "[1]; HPLC peak RRT 0.82, High Humidity 15 Days, Day 0: 0.13", "value": 0.13, "unit": "%"},
      {"measurement": "Relative Peak Area (%)", "setting": "[1]; HPLC peak RRT 0.82, High Temp. 15 Days, Day 0: 0.13", "value": 0.13, "unit": "%"},
      {"measurement": "Relative Peak Area (%)", "setting": "[1]; HPLC peak RRT 0.82, Light Exposure 15 Days, Day 0: 0.13", "value": 0.11, "unit": "%"},
      {"measurement": "Relative Peak Area (%)", "setting": "[1]; HPLC peak RRT 0.84, Accelerated 15 Days, Day 0: 0.06", "value": 0.07, "unit": "%"},
      {"measurement": "Relative Peak Area (%)", "setting": "[1]; HPLC peak RRT 0.84, High Humidity 15 Days, Day 0: 0.06", "value": 0.06, "unit": "%"},
      {"measurement": "Relative Peak Area (%)", "setting": "[1]; HPLC peak RRT 0.84, High Temp. 15 Days, Day 0: 0.06", "value": 0.06, "unit": "%"},
      {"measurement": "Relative Peak Area (%)", "setting": "[1]; HPLC peak RRT 0.84, Light Exposure 15 Days, Day 0: 0.06", "value": 0.06, "unit": "%"},
      {"measurement": "Relative Peak Area (%)", "setting": "[1]; HPLC peak RRT 0.90, Accelerated 15 Days, Day 0: 0.31", "value": 0.32, "unit": "%"},
      {"measurement": "Relative Peak Area (%)", "setting": "[1]; HPLC peak RRT 0.90, High Humidity 15 Days, Day 0: 0.31", "value": 0.30, "unit": "%"},
      {"measurement": "Relative Peak Area (%)", "setting": "[1]; HPLC peak RRT 0.90, High Temp. 15 Days, Day 0: 0.31", "value": 0.48, "unit": "%"},
      {"measurement": "Relative Peak Area (%)", "setting": "[1]; HPLC peak RRT 0.90, Light Exposure 15 Days, Day 0: 0.31", "value": 0.27, "unit": "%"},
      {"measurement": "XRPD Changes", "setting": "[1]; [6]", "value": "No"},
      {"measurement": "Purity/%", "setting": "[1]; [6]", "value": 99.44, "unit": "%"},
      {"measurement": "XRPD Changes", "setting": "[1]; [7]", "value": "No"},
      {"measurement": "Purity/%", "setting": "[1]; [7]", "value": 99.44, "unit": "%"},
      {"measurement": "XRPD Changes", "setting": "[1]; High Temp. 60° C., 7 Days", "value": "No"},
      {"measurement": "Purity/%", "setting": "[1]; High Temp. 60° C., 7 Days", "value": 99.28, "unit": "%"},
      {"measurement": "XRPD Changes", "setting": "[1]; High Temp. 60° C., 15 Days", "value": "No"},
      {"measurement": "Purity/%", "setting": "[1]; High Temp. 60° C., 15 Days", "value": 99.24, "unit": "%"},
      {"measurement": "XRPD Changes", "setting": "[1]; [8]", "value": "No"},
      {"measurement": "Purity/%", "setting": "[1]; [8]", "value": 98.92, "unit": "%"},
      {"measurement": "XRPD Changes", "setting": "[1]; [9]", "value": "No"},
      {"measurement": "Purity/%", "setting": "[1]; [9]", "value": 98.53, "unit": "%"},
      {"measurement": "change in chemical purity (HPLC)", "setting": "[1]; high temperature, high humidity and accelerated conditions for 15 days", "value": "no significant change"},
      {"measurement": "change in chemical purity (HPLC)", "setting": "[1]; light conditions for 15 days", "value": "significant decrease"},
      {"measurement": "adsorption weight gain", "setting": "[2]; at 80% RH", "value": "about 0.46%"},
      {"measurement": "desorption weight gain", "setting": "[2]; at 80% RH", "value": "about 0.49%"},
      {"measurement": "adsorption weight gain", "setting": "[2]; at 95% RH", "value": "about 0.74%"},
      {"measurement": "change in crystalline shape after the DVS test (XRPD)", "setting": "[2]; compared to the pre-test", "value": "did not undergo any change in crystalline shape"},
      {"measurement": "crystalline form during heating", "setting": "[3]", "value": "remained unchanged"}
    ]}
  ]
}
